Consider one substance from paper PMC10319809, “Chronic UCN2 treatment desensitizes CRHR2 and improves insulin sensitivity” (Nature Communications, 2023).

Data set [1] has as its target T1, HA-tagged CRHR2a (Homo sapiens, UniProt Q13324).
T1 construct: expressed in transfected cells; host or cells: HEK293 cells, transient transfection with pcDNA3.1(+) plasmid using Lipofectamine 3000
T1 sequence (Q13324 1-411): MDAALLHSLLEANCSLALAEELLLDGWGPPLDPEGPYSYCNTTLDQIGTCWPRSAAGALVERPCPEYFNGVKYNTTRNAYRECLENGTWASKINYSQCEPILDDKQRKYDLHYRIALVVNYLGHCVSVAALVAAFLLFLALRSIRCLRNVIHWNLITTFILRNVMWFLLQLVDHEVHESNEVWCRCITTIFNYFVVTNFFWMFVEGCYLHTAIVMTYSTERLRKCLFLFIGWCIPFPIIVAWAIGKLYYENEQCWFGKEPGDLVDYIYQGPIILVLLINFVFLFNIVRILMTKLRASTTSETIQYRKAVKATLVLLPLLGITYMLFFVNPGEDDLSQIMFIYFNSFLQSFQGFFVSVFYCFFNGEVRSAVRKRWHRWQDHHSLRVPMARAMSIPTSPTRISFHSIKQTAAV
Nature of the data set: CRHR2 surface expression / internalization, confocal imaging of HEK293 cells with HA-tagged CRHR2a. Type of data set: cell-based. As to conditions: 100 nM UCN2, HEK cells with HA-tagged CRHR2a; n = 4. How it is done: β-Arrestin recruitment can sometimes cause the internalization of the receptor to which it is recruited. To assess whether CRHR2 is internalized following UCN2 treatment, we quantified CRHR2 receptor surface expression using confocal imaging of HEK cells transiently transfected with a plasmid expressing a […] CRHR2a construct (Fig. S3). Cells were treated with saline or 100 nM (−7.0 log[M]) UCN2 and surface expression was determined by fluorescent anti-HA antibody-binding, with and without permeabilizing the cell.
HEK293 cells were plated at a density of 10,000 cells per well into tissue culture-treated clear bottomed, optical microscopy quality, 96 well plates (Perkin Elmer, PhenoPlate 96-well) and grown for 1 day to ~40–60% confluency. Twenty-four hours after plating, cells were transfected with 50 ng of pcDNA3.1(+) plasmid encoding a N-terminally tagged CRHR2α construct using Lipofectamine 3000 (Thermofisher) following manufacturing protocols. Twenty-four hours following transfection, agonists were then added for 30 min and cells were incubated at 37 °C. Prior to imaging, cells were washed once with PBS and fixed with ice-cold 4% paraformaldehyde in PBS for 15 min. After washing 3 times with PBS, cells were kept in the Alexa Fluor 647 anti-HA (1:2000 dilution, BioLegend cat# 682404) diluted in 5% normal goat serum in PBS. […]

Data set [2] in a line: Circulating (serum/plasma) UCN2 by ELISA. Type of data set: in vivo, mouse. How it is done: Plasma UCN2 and UCN3 measurements were made via ELISA according to manufacturer’s instructions (Kamiya Biomedical Company, Seattle, WA). Blood was collected via intracardiac stick. For ob/ob and db/db studies, blood was collected during ad lib feeding. For acute UCN2 dosing, blood was collected 20 min after dosing with UCN2 (Bachem, Bubendorf, Switzerland) dissolved in saline.
(ELISA stands for enzyme-linked immunosorbent assay.)

For data set [3], the system named is male mice. Nature of the data set: Glucose tolerance test (oGTT / IPGTT), blood glucose. The data set is classed as in vivo, mouse. How it is done: All metabolic tests were performed using standard protocols on male littermates (aged: 10–14 weeks). For glucose tolerance tests (GTTs), animals were fasted for 8 h with ad libitum access to water. Fasting glucose measurements were taken before […] oral glucose dose. Blood glucose measurements were taken via tail nick using the AlphaTRAK 2 Glucose Monitoring System (Zoetis, Parsippany-Troy Hills, NJ) at 10, 30, 60, and 120 min after dose. Blood was collected for insulin measurement in EDTA tubes (Becton, Dickinson and Company, Franklin Lakes, NJ) and centrifuged to collect plasma (2000 g for 10 min at 4 °C), which was stored at −80 °C until analysis at 10, 30, 60, and 120 min after dose. Insulin levels were measured using an Ultrasensitive Mouse Insulin ELISA (ALPCO, Salem, NH), according to manufacturer’s instructions. For insulin tolerance tests (ITTs), animals were fasted for 8 h and blood glucose was measured before (0 min) and at 30, 60, 90, and 120 min following IP injection of 0.75 IU/kg of insulin (Humulin R, Eli Lilly, Indianapolis, IN). […]

Values joined by “and” are separate entries in the source; they are usually repeats but may differ in a detail not shown here. Identical values can stand only once. Where no end group is shown, it is not given here.

Turning to “IVLSLDVPIGLLQILLEQARARAAREQATTNARILARVGHC-NH2 (C-terminus assumed) [UCN2, Urocortin 2]”, the “CRHR2 internalization / surface receptor expression” value in data set [1] is “increase of CRHR2 internalization and decreased surface receptor expression”. The “Serum [UCN2]” value in data set [2] (WT mice, 20 min after 1 mg/kg UCN2 IP, individual animals (Fig. 2A)) is -7.638 log[M] and -7.693 log[M] and -7.457 log[M] and -7.301 log[M] and -7.207 log[M] and -7.27 log[M] and -7.25 log[M] and -7.2975 log[M]. For the same substance, the “circulating concentration of UCN2, average” value in data set [2] (mice, single IP 1 mg/kg, 20 min after injection, n = 8) is −7.4 log[M]. In addition, in data set [2] (mouse, plasma, mice, single IP 1 mg/kg, 20 min after injection, n = 8, read-out: circulating concentration of UCN2, average), the level at time molar at 20 min turned out to be 40 nM. Moreover, in data set [3] (UCN2.AAV animals injected acutely with UCN2), the “glucose tolerance after acute UCN2 in UCN2.AAV animals” value is on record as “worsened glucose tolerance”. In addition, the “glucose tolerance in oGTT” value in data set [3] (oGTT twenty minutes after 1 mg/kg IP UCN2) is recorded as “glucose intolerance”.
